Measurements: patent US9359308B2, “Pyrazine kinase inhibitors” (Portola Pharmaceuticals, Inc., priority 2011, dated 2016)

target: T1, full length active recombinant SYK enzyme (Homo sapiens, UniProt P43405); experiment: Inhibition of Syk tyrosine phosphorylation activity (LANCE TR-FRET kinase assay); assay type: biochemical; conditions: activity in the Syk assays, class symbols
T1 construct: full length active recombinant SYK enzyme (Millipore, Calif.); purchased Millipore
How it was run: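 1 nM full-length active recombinant SYK phosphorylated 550 nM biotin-DEEDYESP-OH with 100 μM ATP in 50 mM Tris pH 7.5, 5 mM MgCl2, 1 mM DTT and 3% DMSO for 1 h at room temperature. After EDTA quench, Eu-anti-phosphotyrosine/SA-APC TR-FRET was read after 1 h. IC50s came from non-linear regression.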

SMILES	IC50
CC[C@@H](Nc1cnc(C(N)=O)c(Nc2ccc3cccnc3c2)n1)C(N)=O [Example 376, (R)-5-(1-amino-1-oxobutan-2-ylamino)-3-(quinolin-7-ylamino)pyrazine-2-carboxamide]	0.001 to 0.01 µM
CC[C@@H](Nc1cnc(C(N)=O)c(Nc2cccc3ccncc23)n1)C(N)=O [Example 377, (R)-5-(1-amino-1-oxobutan-2-ylamino)-3-(isoquinolin-8-ylamino)pyrazine-2-carboxamide]	0.1 to 1 µM
CC[C@@H](Nc1cnc(C(N)=O)c(Nc2cccc3cnccc23)n1)C(N)=O [Example 378, (R)-5-(1-amino-1-oxobutan-2-ylamino)-3-(isoquinolin-5-ylamino)pyrazine-2-carboxamide]	0.01 to 0.1 µM
CC[C@@H](Nc1cnc(C(N)=O)c(Nc2ccc3ccncc3c2)n1)C(N)=O [Example 379, (R)-5-(1-amino-1-oxobutan-2-ylamino)-3-(isoquinolin-7-ylamino)pyrazine-2-carboxamide]	0.001 to 0.01 µM
CC[C@@H](Nc1cnc(C(N)=O)c(Nc2cnc3ncccc3c2)n1)C(N)=O [Example 380, (R)-3-(1,8-naphthyridin-3-ylamino)-5-(1-amino-1-oxobutan-2-ylamino)pyrazine-2-carboxamide]	0.001 to 0.01 µM
CC[C@@H](Nc1cnc(C(N)=O)c(Nc2cnc3ccncc3c2)n1)C(N)=O [Example 381, (R)-3-(1,6-naphthyridin-3-ylamino)-5-(1-amino-1-oxobutan-2-ylamino)pyrazine-2-carboxamide]	0.001 to 0.01 µM
NC(=O)CNc1cnc(C(N)=O)c(Nc2ccc3ncccc3c2)n1 [Example 382, 5-(2-amino-2-oxoethylamino)-3-(quinolin-6-ylamino)pyrazine-2-carboxamide]	0.01 to 0.1 µM
CC[C@@H](Nc1cnc(C(N)=O)c(Nc2cnc3cccnc3c2)n1)C(N)=O [Example 383, (R)-3-(1,5-naphthyridin-3-ylamino)-5-(1-amino-1-oxobutan-2-ylamino)pyrazine-2-carboxamide]	0.01 to 0.1 µM
NC(=O)c1ncc(N[C@@H]2CCCC(F)(F)[C@@H]2N)nc1Nc1ccc2cccnc2c1 [Example 384, 5-((1R,2R)-2-amino-3,3-difluorocyclohexylamino)-3-(quinolin-7-ylamino)pyrazine-2-carboxamide]	0.01 to 0.1 µM
NC(=O)c1ncc(N[C@@H]2CCCC(F)(F)[C@@H]2N)nc1Nc1ccc2ccncc2c1 [Example 385, 5-((1R,2R)-2-amino-3,3-difluorocyclohexylamino)-3-(isoquinolin-7-ylamino)pyrazine-2-carboxamide]	0.001 to 0.01 µM
CC[C@@H](Nc1cnc(C(N)=O)c(Nc2ccnc3ncccc23)n1)C(N)=O [Example 386, (R)-3-(1,8-naphthyridin-4-ylamino)-5-(1-amino-1-oxobutan-2-ylamino)pyrazine-2-carboxamide]	0.001 to 0.01 µM
NC(=O)c1ncc(N[C@@H]2CCCC(F)(F)[C@@H]2N)nc1Nc1cc(-c2ccccc2)no1 [Example 387, 5-((1R,2R)-2-amino-3,3-difluorocyclohexylamino)-3-(3-phenylisoxazol-5-ylamino)pyrazine-2-carboxamide]	> 1 µM
NC(=O)c1ncc(N[C@H](Cc2c[nH]c3ccccc23)C(N)=O)nc1Nc1ccc2ncccc2c1 [Example 388, (R)-5-(1-amino-3-(1H-indol-3-yl)-1-oxopropan-2-ylamino)-3-(quinolin-6-ylamino)pyrazine-2-carboxamide]	0.001 to 0.01 µM
Cc1cc(Nc2nc(N[C@H](Cc3c[nH]c4ccccc34)C(N)=O)cnc2C(N)=O)sn1 [Example 389, (R)-5-(1-amino-3-(1H-indol-3-yl)-1-oxopropan-2-ylamino)-3-(3-methylisothiazol-5-ylamino)pyrazine-2-carboxamide]	0.001 to 0.01 µM
Cc1cc(Nc2nc(N[C@H](CC3CCCCC3)C(N)=O)cnc2C(N)=O)sn1 [Example 390, (R)-5-(1-amino-3-cyclohexyl-1-oxopropan-2-ylamino)-3-(3-methylisothiazol-5-ylamino)pyrazine-2-carboxamide]	0.01 to 0.1 µM

Now from value to compound:

IC50	SMILES
0.001 to 0.01 µM	Cn1ccc2cc(Nc3nc(N[C@@H]4CCCC(F)(F)[C@@H]4N)cnc3C(N)=O)ccc21 [Example 391, 5-((1R,2R)-2-amino-3,3-difluorocyclohexylamino)-3-(1-methyl-1H-indol-5-ylamino)pyrazine-2-carboxamide]
0.001 to 0.01 µM	Cn1ccc2c(Nc3nc(N[C@@H]4CCCC(F)(F)[C@@H]4N)cnc3C(N)=O)cccc21 [Example 392, 5-((1R,2R)-2-amino-3,3-difluorocyclohexylamino)-3-(1-methyl-1H-indol-4-ylamino)pyrazine-2-carboxamide]
0.001 to 0.01 µM	CC[C@@H](Nc1cnc(C(N)=O)c(Nc2ccc3c(ccn3C)c2)n1)C(N)=O [Example 393, (R)-5-(1-amino-1-oxobutan-2-ylamino)-3-(1-methyl-1H-indol-5-ylamino)pyrazine-2-carboxamide]
0.001 to 0.01 µM	CC[C@@H](Nc1cnc(C(N)=O)c(Nc2cccc3c2ccn3C)n1)C(N)=O [Example 394, (R)-5-(1-amino-1-oxobutan-2-ylamino)-3-(1-methyl-1H-indol-4-ylamino)pyrazine-2-carboxamide]
0.001 to 0.01 µM	Cc1cc(Nc2nc(N[C@@H](C(N)=O)c3ccccc3)cnc2C(N)=O)sn1 [Example 395, (R)-5-(2-amino-2-oxo-1-phenylethylamino)-3-(3-methylisothiazol-5-ylamino)pyrazine-2-carboxamide]
0.001 to 0.01 µM	Cn1ccc2cc(Nc3nc(N[C@H](CC4CC4)C(N)=O)cnc3C(N)=O)ccc21 [Example 396, (R)-5-(1-amino-3-cyclopropyl-1-oxopropan-2-ylamino)-3-(1-methyl-1H-indol-5-ylamino)pyrazine-2-carboxamide]
0.001 to 0.01 µM	Cn1ccc2c(Nc3nc(N[C@H](CC4CC4)C(N)=O)cnc3C(N)=O)cccc21 [Example 397, (R)-5-(1-amino-3-cyclopropyl-1-oxopropan-2-ylamino)-3-(1-methyl-1H-indol-4-ylamino)pyrazine-2-carboxamide]
0.001 to 0.01 µM	Cc1cc(Nc2nc(N[C@H](CC(F)(F)F)C(N)=O)cnc2C(N)=O)sn1 [Example 398, (R)-5-(1-amino-4,4,4-trifluoro-1-oxobutan-2-ylamino)-3-(3-methylisothiazol-5-ylamino)pyrazine-2-carboxamide]
0.1 to 1 µM	Cc1cc(Nc2nc(N[C@H](CC[S+](C)[O-])C(N)=O)cnc2C(N)=O)sn1 (stereo partly drawn) [Example 399, 5-((2R)-1-amino-4-(methylsulfinyl)-1-oxobutan-2-ylamino)-3-(3-methylisothiazol-5-ylamino)pyrazine-2-carboxamide]
0.01 to 0.1 µM	Cc1cc(Nc2nc(N[C@H](CCS(C)(=O)=O)C(N)=O)cnc2C(N)=O)sn1 [Example 400, (R)-5-(1-amino-4-(methylsulfonyl)-1-oxobutan-2-ylamino)-3-(3-methylisothiazol-5-ylamino)pyrazine-2-carboxamide]
0.01 to 0.1 µM	Cc1cc(Nc2nc(NC3(C(N)=O)CCCCC3)cnc2C(N)=O)sn1 [Example 401, 5-(1-carbamoylcyclohexylamino)-3-(3-methylisothiazol-5-ylamino)pyrazine-2-carboxamide]
0.01 to 0.1 µM	COC[C@@H](Nc1cnc(C(N)=O)c(Nc2cc(C)ns2)n1)C(N)=O [Example 402, (R)-5-(1-amino-3-methoxy-1-oxopropan-2-ylamino)-3-(3-methylisothiazol-5-ylamino)pyrazine-2-carboxamide]
0.01 to 0.1 µM	CC[C@@H](Nc1cnc(C(N)=O)c(Nc2cc(-c3ccccc3)ns2)n1)C(N)=O [Example 403, (R)-5-(1-amino-1-oxobutan-2-ylamino)-3-(3-phenylisothiazol-5-ylamino)pyrazine-2-carboxamide]
0.01 to 0.1 µM	CC[C@@H](Nc1cnc(C(N)=O)c(Nc2ccc3ncncc3c2)n1)C(N)=O [Example 404, (R)-5-(1-amino-1-oxobutan-2-ylamino)-3-(quinazolin-6-ylamino)pyrazine-2-carboxamide]
0.001 to 0.01 µM	NC(=O)c1ncc(N[C@@H]2CCCC(F)(F)[C@@H]2N)nc1Nc1ccc2ncncc2c1 [Example 405, 5-((1R,2R)-2-amino-3,3-difluorocyclohexylamino)-3-(quinazolin-6-ylamino)pyrazine-2-carboxamide]
0.001 to 0.01 µM	NC(=O)c1ncc(N[C@H](CC2CC2)C(N)=O)nc1Nc1cnc2cccnc2c1 [Example 406, (R)-3-(1,5-naphthyridin-3-ylamino)-5-(1-amino-3-cyclopropyl-1-oxopropan-2-ylamino)pyrazine-2-carboxamide]
0.001 to 0.01 µM	CC(C)C[C@@H](Nc1cnc(C(N)=O)c(Nc2cnc3cccnc3c2)n1)C(N)=O [Example 407, (R)-3-(1,5-naphthyridin-3-ylamino)-5-(1-amino-4-methyl-1-oxopentan-2-ylamino)pyrazine-2-carboxamide]
0.001 to 0.01 µM	Cc1cc(Nc2nc(N[C@@H]3CCOC[C@@H]3N)cnc2C(N)=O)sn1 [Example 408, 5-((3R,4R)-3-aminotetrahydro-2H-pyran-4-ylamino)-3-(3-methylisothiazol-5-ylamino)pyrazine-2-carboxamide]
0.001 to 0.01 µM	NC(=O)c1ncc(N[C@H](Cc2cccs2)C(N)=O)nc1Nc1cnc2cccnc2c1 [Example 409, (R)-3-(1,5-naphthyridin-3-ylamino)-5-(1-amino-1-oxo-3-(thiophen-2-yl)propan-2-ylamino)pyrazine-2-carboxamide]
0.01 to 0.1 µM	COC[C@@H](Nc1cnc(C(N)=O)c(Nc2cnc3cccnc3c2)n1)C(N)=O [Example 410, (R)-3-(1,5-naphthyridin-3-ylamino)-5-(1-amino-3-methoxy-1-oxopropan-2-ylamino)pyrazine-2-carboxamide]
0.01 to 0.1 µM	NC(=O)c1ncc(N[C@@H](C(N)=O)c2ccccc2)nc1Nc1cnc2cccnc2c1 [Example 411, (R)-3-(1,5-naphthyridin-3-ylamino)-5-(2-amino-2-oxo-1-phenylethylamino)pyrazine-2-carboxamide]
